Results reported in EP4603105A1, “PHARMACEUTICAL COMPOSITION CONTAINING CYCLIC COMPOUND HAVING SELECTIVE KRAS INHIBITORY EFFECT AGAINST HRAS AND NRAS” (CHUGAI SEIYAKU KABUSHIKI KAISHA, priority 2022, dated 2024).
*1 amine or outer side, *2 acyl side, *3 side chain or, on linkers, in order; H or OH if unused. Where a SMILES comes first, the peptide text is derived from it. Bridges are numbered along the chain shown (N, C = ends). [ ]: non-standard residue; d: D form. The star is where a group is joined. hPhe(3-Cl-4-CF3) = N[C@@H](CCc1ccc(C(F)(F)F)c(Cl)c1)C(=O)O; NPrPhe(4-CF3) = CCCN[C@@H](Cc1ccc(C(F)(F)F)cc1)C(=O)O; NEtPhe(4-CF3) = CCN[C@@H](Cc1ccc(C(F)(F)F)cc1)C(=O)O; hPhe(3,4-Cl2) = N[C@@H](CCc1ccc(Cl)c(Cl)c1)C(=O)O; X26 = CCCN([C@@H](Cc1ccc(F)cc1)C(=O)[*:2])[*:1]; NEtPhe(4-F) = CCN[C@@H](Cc1ccc(F)cc1)C(=O)O; NMePhe(4-F) = CN[C@@H](Cc1ccc(F)cc1)C(=O)O; NMeGly(cPent) = CN[C@H](C(=O)O)C1CCCC1; Hyp = O=C(O)[C@@H]1C[C@@H](O)CN1; NMeD = CN[C@@H](CC(=O)O)C(=O)O; NMeL = CN[C@@H](CC(C)C)C(=O)O; Ac6c = NC1(C(=O)O)CCCCC1; Morpholide = C1CN(*)CCO1; NMeA = CN[C@@H](C)C(=O)O; Ac5c = NC1(C(=O)O)CCCC1; Aze = O=C(O)[C@@H]1CCN1; Ac3c = NC1(C(=O)O)CC1; Aib = CC(C)(N)C(=O)O; Sar = CNCC(=O)O

Tests used:
[1] = target: GDP-bound NRAS wild-type protein (Homo sapiens, UniProt P01111); assay: Binding to NRAS by surface plasmon resonance (SPR), KD and KD ratio to KRAS; details: ratio of KD for GDP-bound NRAS wild-type protein to KD for KRAS
Outline: (§1)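 Compound binding is evaluated by SPR single-cycle kinetics, with concentrations added intermittently from low to high for 75 s each. Target surfaces carry GDP-loaded biotinylated Avi-RAS at about 100–300 RU, regenerated after each cycle; temperature 30°C. A 1:1 binding model gives KD.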

HRAS wild-type protein = HRAS wild-type protein (Homo sapiens, UniProt P01112); assay: Binding to HRAS by surface plasmon resonance (SPR), KD and KD ratio to KRAS; details: ratio of KD for HRAS wild-type protein to KD for KRAS
Outline: as §1

[2] = tested on: human lung cancer strain NCI-H441; assay type: cell-based
Outline: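 Proliferation was scored by […] measured after the reagent was added to cultures kept at 37°C in 5% carbon dioxide.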

Sequence of HRAS wild-type protein (P01112 whole entry): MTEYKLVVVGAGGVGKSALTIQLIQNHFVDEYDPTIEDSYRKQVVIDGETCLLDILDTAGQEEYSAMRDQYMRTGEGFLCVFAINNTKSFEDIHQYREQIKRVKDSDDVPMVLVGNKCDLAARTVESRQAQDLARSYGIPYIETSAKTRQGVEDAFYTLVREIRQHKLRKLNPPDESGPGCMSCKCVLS
Sequence of GDP-bound NRAS wild-type protein (P01111 whole entry): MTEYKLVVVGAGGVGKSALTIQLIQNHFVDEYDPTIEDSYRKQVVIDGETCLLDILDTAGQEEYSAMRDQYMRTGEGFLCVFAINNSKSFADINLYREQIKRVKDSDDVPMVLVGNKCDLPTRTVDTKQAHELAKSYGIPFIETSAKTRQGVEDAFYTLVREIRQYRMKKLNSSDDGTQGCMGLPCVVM

CC[C@H](C)[C@@H]1NC(=O)[C@H](CC(C)C)N(C)C(=O)C[C@@H](C(=O)N2CCOCC2)N(C)C(=O)[C@H](C2CCCC2)N(C)C(=O)C2(CCCC2)NC(=O)[C@@H]2CCCN2C(=O)[C@H](CCc2ccc(C(F)(F)F)c(Cl)c2)NC(=O)CN(C)C(=O)[C@H](Cc2ccc(F)cc2)N(C)C(=O)[C@@H]2CCN2C(=O)[C@H](C)N(C)C1=O [PP0217] ([NMeL]I[NMeA][Aze][NMePhe(4-F)][Sar][hPhe(3-Cl-4-CF3)]P[Ac5c][NMeGly(cPent)][NMeD]-Morpholide; lactam N-11)
NRAS /KRAS [1]: C (A compound having a KD ratio of 0.1 or more and less than 3 is denoted as C)
HRAS /KRAS (HRAS wild-type protein): C (A compound having a KD ratio of 0.1 or more and less than 3 is denoted as C)
IC50 [2]: 18.1 nM

CC[C@H](C)[C@@H]1NC(=O)[C@H](CC(C)C)N(C)C(=O)C[C@@H](C(=O)N2CCOCC2)N(C)C(=O)[C@H](C2CCCC2)N(C)C(=O)C2(CCCC2)NC(=O)[C@@H]2CCCN2C(=O)[C@H](CCc2ccc(C(F)(F)F)c(Cl)c2)NC(=O)CN(C)C(=O)[C@H](Cc2ccc(F)cc2)N(CC)C(=O)[C@@H]2CCN2C(=O)[C@H](C)N(C)C1=O [PP0218] ([NMeL]I[NMeA][Aze][NEtPhe(4-F)][Sar][hPhe(3-Cl-4-CF3)]P[Ac5c][NMeGly(cPent)][NMeD]-Morpholide; lactam N-11)
NRAS /KRAS [1]: C (A compound having a KD ratio of 0.1 or more and less than 3 is denoted as C)
HRAS /KRAS (HRAS wild-type protein): C (A compound having a KD ratio of 0.1 or more and less than 3 is denoted as C)
IC50 [2]: 3.9 nM

CCCN1C(=O)[C@@H]2CCN2C(=O)[C@H](C)N(C)C(=O)[C@H]([C@@H](C)CC)NC(=O)[C@H](CC(C)C)N(C)C(=O)C[C@@H](C(=O)N2CCOCC2)N(C)C(=O)[C@H](C2CCCC2)N(C)C(=O)C2(CCCC2)NC(=O)[C@@H]2CCCN2C(=O)[C@H](CCc2ccc(C(F)(F)F)c(Cl)c2)NC(=O)CN(C)C(=O)[C@@H]1Cc1ccc(F)cc1 [PP0219] ([NMeL]I[NMeA][Aze][X26][Sar][hPhe(3-Cl-4-CF3)]P[Ac5c][NMeGly(cPent)][NMeD]-Morpholide; lactam N-11)
NRAS /KRAS [1]: C (A compound having a KD ratio of 0.1 or more and less than 3 is denoted as C)
HRAS /KRAS (HRAS wild-type protein): B (a compound having 3 or more and less than 10 is denoted as B)
IC50 [2]: 2.2 nM

CC[C@H](C)[C@@H]1NC(=O)[C@H](CC(C)C)N(C)C(=O)C[C@@H](C(=O)N2CCOCC2)N(C)C(=O)[C@H](C2CCCC2)N(C)C(=O)C2(CC2)NC(=O)[C@@H]2CCCN2C(=O)[C@H](CCc2ccc(C(F)(F)F)c(Cl)c2)NC(=O)CN(C)C(=O)[C@H](Cc2ccc(C(F)(F)F)cc2)N(CC)C(=O)[C@@H]2CCN2C(=O)[C@H](C)N(C)C1=O [PP0220] ([NMeL]I[NMeA][Aze][NEtPhe(4-CF3)][Sar][hPhe(3-Cl-4-CF3)]P[Ac3c][NMeGly(cPent)][NMeD]-Morpholide; lactam N-11)
NRAS /KRAS [1]: C (A compound having a KD ratio of 0.1 or more and less than 3 is denoted as C)
HRAS /KRAS (HRAS wild-type protein): C (A compound having a KD ratio of 0.1 or more and less than 3 is denoted as C)
IC50 [2]: 7.7 nM

CC[C@H](C)[C@@H]1NC(=O)[C@H](CC(C)C)N(C)C(=O)C[C@@H](C(=O)N2CCOCC2)N(C)C(=O)[C@H](C2CCCC2)N(C)C(=O)C(C)(C)NC(=O)[C@@H]2CCCN2C(=O)[C@H](CCc2ccc(C(F)(F)F)c(Cl)c2)NC(=O)CN(C)C(=O)[C@H](Cc2ccc(C(F)(F)F)cc2)N(CC)C(=O)[C@@H]2CCN2C(=O)[C@H](C)N(C)C1=O [PP0221] ([NMeL]I[NMeA][Aze][NEtPhe(4-CF3)][Sar][hPhe(3-Cl-4-CF3)]P[Aib][NMeGly(cPent)][NMeD]-Morpholide; lactam N-11)
NRAS /KRAS [1]: C (A compound having a KD ratio of 0.1 or more and less than 3 is denoted as C)
HRAS /KRAS (HRAS wild-type protein): C (A compound having a KD ratio of 0.1 or more and less than 3 is denoted as C)
IC50 [2]: 2.9 nM

CC[C@H](C)[C@@H]1NC(=O)[C@H](CC(C)C)N(C)C(=O)C[C@@H](C(=O)N2CCOCC2)N(C)C(=O)[C@H](C2CCCC2)N(C)C(=O)C2(CCCCC2)NC(=O)[C@@H]2CCCN2C(=O)[C@H](CCc2ccc(C(F)(F)F)c(Cl)c2)NC(=O)CN(C)C(=O)[C@H](Cc2ccc(C(F)(F)F)cc2)N(CC)C(=O)[C@@H]2CCN2C(=O)[C@H](C)N(C)C1=O [PP0222] ([NMeL]I[NMeA][Aze][NEtPhe(4-CF3)][Sar][hPhe(3-Cl-4-CF3)]P[Ac6c][NMeGly(cPent)][NMeD]-Morpholide; lactam N-11)
NRAS /KRAS [1]: C (A compound having a KD ratio of 0.1 or more and less than 3 is denoted as C)
HRAS /KRAS (HRAS wild-type protein): C (A compound having a KD ratio of 0.1 or more and less than 3 is denoted as C)
IC50 [2]: 17.1 nM

CC[C@H](C)[C@@H]1NC(=O)[C@H](CC(C)C)N(C)C(=O)C[C@@H](C(=O)N2CCOCC2)N(C)C(=O)[C@H](C2CCCC2)N(C)C(=O)C2(CCCC2)NC(=O)[C@@H]2CCCN2C(=O)[C@H](CCc2ccc(Cl)c(Cl)c2)NC(=O)CN(C)C(=O)[C@H](Cc2ccc(C(F)(F)F)cc2)N(CC)C(=O)[C@@H]2CCN2C(=O)[C@H](C)N(C)C1=O [PP0223] ([NMeL]I[NMeA][Aze][NEtPhe(4-CF3)][Sar][hPhe(3,4-Cl2)]P[Ac5c][NMeGly(cPent)][NMeD]-Morpholide; lactam N-11)
NRAS /KRAS [1]: C (A compound having a KD ratio of 0.1 or more and less than 3 is denoted as C)
HRAS /KRAS (HRAS wild-type protein): C (A compound having a KD ratio of 0.1 or more and less than 3 is denoted as C)
IC50 [2]: 5 nM

CCCN1C(=O)[C@@H]2CCN2C(=O)[C@H](C)N(C)C(=O)[C@H]([C@@H](C)CC)NC(=O)[C@H](CC(C)C)N(C)C(=O)C[C@@H](C(=O)N2CCOCC2)N(C)C(=O)[C@H](C2CCCC2)N(C)C(=O)C2(CC2)NC(=O)[C@@H]2CCCN2C(=O)[C@H](CCc2ccc(C(F)(F)F)c(Cl)c2)NC(=O)CN(C)C(=O)[C@@H]1Cc1ccc(C(F)(F)F)cc1 [PP0224] ([NMeL]I[NMeA][Aze][NPrPhe(4-CF3)][Sar][hPhe(3-Cl-4-CF3)]P[Ac3c][NMeGly(cPent)][NMeD]-Morpholide; lactam N-11)
NRAS /KRAS [1]: C (A compound having a KD ratio of 0.1 or more and less than 3 is denoted as C)
HRAS /KRAS (HRAS wild-type protein): B (a compound having 3 or more and less than 10 is denoted as B)
IC50 [2]: 2 nM

CCCN1C(=O)[C@@H]2CCN2C(=O)[C@H](C)N(C)C(=O)[C@H]([C@@H](C)CC)NC(=O)[C@H](CC(C)C)N(C)C(=O)C[C@@H](C(=O)N2CCOCC2)N(C)C(=O)[C@H](C2CCCC2)N(C)C(=O)C(C)(C)NC(=O)[C@@H]2CCCN2C(=O)[C@H](CCc2ccc(C(F)(F)F)c(Cl)c2)NC(=O)CN(C)C(=O)[C@@H]1Cc1ccc(C(F)(F)F)cc1 [PP0225] ([NMeL]I[NMeA][Aze][NPrPhe(4-CF3)][Sar][hPhe(3-Cl-4-CF3)]P[Aib][NMeGly(cPent)][NMeD]-Morpholide; lactam N-11)
NRAS /KRAS [1]: C (A compound having a KD ratio of 0.1 or more and less than 3 is denoted as C)
HRAS /KRAS (HRAS wild-type protein): C (A compound having a KD ratio of 0.1 or more and less than 3 is denoted as C)
IC50 [2]: 2.4 nM

CCCN1C(=O)[C@@H]2CCN2C(=O)[C@H](C)N(C)C(=O)[C@H]([C@@H](C)CC)NC(=O)[C@H](CC(C)C)N(C)C(=O)C[C@@H](C(=O)N2CCOCC2)N(C)C(=O)[C@H](C2CCCC2)N(C)C(=O)C2(CCCCC2)NC(=O)[C@@H]2CCCN2C(=O)[C@H](CCc2ccc(C(F)(F)F)c(Cl)c2)NC(=O)CN(C)C(=O)[C@@H]1Cc1ccc(C(F)(F)F)cc1 [PP0226] ([NMeL]I[NMeA][Aze][NPrPhe(4-CF3)][Sar][hPhe(3-Cl-4-CF3)]P[Ac6c][NMeGly(cPent)][NMeD]-Morpholide; lactam N-11)
NRAS /KRAS [1]: C (A compound having a KD ratio of 0.1 or more and less than 3 is denoted as C)
HRAS /KRAS (HRAS wild-type protein): B (a compound having 3 or more and less than 10 is denoted as B)
IC50 [2]: 15.3 nM

CCCN1C(=O)[C@@H]2CCN2C(=O)[C@H](C)N(C)C(=O)[C@H]([C@@H](C)CC)NC(=O)[C@H](CC(C)C)N(C)C(=O)C[C@@H](C(=O)N2CCOCC2)N(C)C(=O)[C@H](C2CCCC2)N(C)C(=O)C2(CCCC2)NC(=O)[C@@H]2CCCN2C(=O)[C@H](CCc2ccc(Cl)c(Cl)c2)NC(=O)CN(C)C(=O)[C@@H]1Cc1ccc(C(F)(F)F)cc1 [PP0227] ([NMeL]I[NMeA][Aze][NPrPhe(4-CF3)][Sar][hPhe(3,4-Cl2)]P[Ac5c][NMeGly(cPent)][NMeD]-Morpholide; lactam N-11)
NRAS /KRAS [1]: C (A compound having a KD ratio of 0.1 or more and less than 3 is denoted as C)
HRAS /KRAS (HRAS wild-type protein): B (a compound having 3 or more and less than 10 is denoted as B)
IC50 [2]: 4.1 nM

CCCN1C(=O)[C@@H]2CCN2C(=O)[C@H](C)N(C)C(=O)[C@H]([C@@H](C)CC)NC(=O)[C@H](CC(C)C)N(C)C(=O)C[C@@H](C(=O)N2CCOCC2)N(C)C(=O)[C@H](C2CCCC2)N(C)C(=O)C2(CCCC2)NC(=O)[C@@H]2C[C@@H](OCC)CN2C(=O)[C@H](CCc2ccc(C(F)(F)F)c(Cl)c2)NC(=O)CN(C)C(=O)[C@@H]1Cc1ccc(C(F)(F)F)cc1 [PP0228] ([NMeL]I[NMeA][Aze][NPrPhe(4-CF3)][Sar][hPhe(3-Cl-4-CF3)][Hyp](Et)[Ac5c][NMeGly(cPent)][NMeD]-Morpholide; lactam N-11)
NRAS /KRAS [1]: C (A compound having a KD ratio of 0.1 or more and less than 3 is denoted as C)
HRAS /KRAS (HRAS wild-type protein): B (a compound having 3 or more and less than 10 is denoted as B)
IC50 [2]: 1.8 nM
